Source: PubChem BioAssay (NCI)
Several values for one entry are separate records, joined by “and”; a condition that tells them apart may be missing. Equal entries are not always repeated.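 1) Cells in 96-well plates. 2) Compound, 48 h, 5 concentrations. 3) Linear interpolation between surrounding doses. 4) Unreached endpoint = highest concentration. Abbreviation: GI50, concentration required for 50% inhibition of growth. At the TGI there is no net growth.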

system: SN12K1 renal; assay: NCI tumour cell line growth inhibition, 48 h

For C=C1C(=O)O[C@H]2[C@H]1[C@@H](OC(=O)C=C(C)C)CC1=C[C@@H](C[C@@]3(C)O[C@@H]23)OC1=O, the GI50 was 17.6 µM.

C=C1C(=O)O[C@H]2[C@H]1[C@@H](OC(=O)C=C(C)C)CC1=C[C@@H](C[C@@]3(C)O[C@@H]23)OC1=O was tested, and the TGI was 21.3 µM and 35.5 µM.

Point of comparison: CCOC(=O)C(N)CSC(=O)NC (stereo not given), TGI 112 µM. Against it:
- O=C1NC(=O)C(CCO)(c2ccccc2)C(=O)N1 — not separable, > 100 µM
- COC(=O)C1OC(Oc2cc(O)c3c(=O)cc(-c4ccc(O)cc4)oc3c2)C(O)C(O)C1O (stereo not given) — not separable, > 100 µM
- CN(C)C(=O)OCOC(=O)N(C)C — not separable, > 100 µM
- CC(=O)OCC1OC(Nc2ncc(-c3ccc(C)cc3)s2)C(OC(C)=O)C(OC(C)=O)C1OC(C)=O (stereo not given) — not separable, > 100 µM

system: P388/ADR leukemia; assay: NCI tumour cell line growth inhibition, 48 h

With C=C1C(=O)O[C@H]2[C@H]1[C@@H](OC(=O)C=C(C)C)CC1=C[C@@H](C[C@@]3(C)O[C@@H]23)OC1=O the TGI was 1120 µM and 1250 µM.

Point of comparison: CCOC(=O)C(N)CSC(=O)NC (stereo not given), TGI 104 µM. Against it:
- COC(=O)C1OC(Oc2cc(O)c3c(=O)cc(-c4ccc(O)cc4)oc3c2)C(O)C(O)C1O (stereo not given) — not separable, > 100 µM
- CN(C)C(=O)OCOC(=O)N(C)C — not separable, > 100 µM
- CC(=O)OCC1OC(Nc2ncc(-c3ccc(C)cc3)s2)C(OC(C)=O)C(OC(C)=O)C1OC(C)=O (stereo not given) — not separable, > 94.1 µM

system: P388 leukemia; assay: NCI tumour cell line growth inhibition, 48 h

Point of comparison: C=C1C(=O)O[C@H]2[C@H]1[C@@H](OC(=O)C=C(C)C)CC1=C[C@@H](C[C@@]3(C)O[C@@H]23)OC1=O, TGI 0.914 µM. Against it:
- CCOC(=O)C(N)CSC(=O)NC (stereo not given) — 110-fold higher, 102 µM
- O=C1NC(=O)C(CCO)(c2ccccc2)C(=O)N1 — higher, > 100 µM
- COC(=O)C1OC(Oc2cc(O)c3c(=O)cc(-c4ccc(O)cc4)oc3c2)C(O)C(O)C1O (stereo not given) — higher, > 100 µM
- CN(C)C(=O)OCOC(=O)N(C)C — higher, > 100 µM
- CC(=O)OCC1OC(Nc2ncc(-c3ccc(C)cc3)s2)C(OC(C)=O)C(OC(C)=O)C1OC(C)=O (stereo not given) — 79-fold higher, 72.5 µM

system: RXF-631 renal; assay: NCI tumour cell line growth inhibition, 48 h

Point of comparison: CCN1CCN(c2ccc(Nc3ccnc4ccc5nn(C)nc5c34)cc2)CC1, TGI 23.9 µM. Against it:
- COC(=O)c1ccc(/C=C2\N=C(C)OC2=O)cc1 — higher, > 100 µM
